Source: ChEMBL document CHEMBL1201861, “Genomics of Drug Sensitity in Cancer screening data, Wellcome Trust Sanger Institute”

Key:
Experiment in all cases: cells
[1] = system: CTV-1; format: functional, cell-based, Homo sapiens; conditions: Homo sapiens, CTV-1;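 further: growth inhibition of the cell line, read out with a cell viability assay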
Description: SANGER: Inhibition of human CTV-1 cell growth in a cell viability assay.

[2] = system: D283 Med; format: functional, cell-based, Homo sapiens; conditions: Homo sapiens, D283 Med
Description: SANGER: Inhibition of human D-283MED cell growth in a cell viability assay.

[3] = system: HEL; format: functional, cell-based, Homo sapiens; conditions: Homo sapiens, HEL;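 further: growth inhibition of HEL cells, read out with a cell viability assay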
Description: SANGER: Inhibition of human HEL cell growth in a cell viability assay.

[4] = system: NCI-H2126; format: functional, cell-based, Homo sapiens; conditions: Homo sapiens, NCI-H2126;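 further: growth inhibition of the cancer cell line, determined with a cell viability readout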
Description: SANGER: Inhibition of human NCI-H2126 cell growth in a cell viability assay.

[5] = system: GT3TKB; format: functional, cell-based, Homo sapiens; conditions: Homo sapiens, GT3TKB;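 further: growth inhibition of the cell line, read out with a cell viability assay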
Description: SANGER: Inhibition of human GT3TKB cell growth in a cell viability assay.

[6] = system: NB5; format: functional, cell-based, Homo sapiens; conditions: Homo sapiens, NB5;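 further: growth inhibition of NB5 cells, read out as cell viability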
Description: SANGER: Inhibition of human NB5 cell growth in a cell viability assay.

[7] = system: PSN1; format: functional, cell-based, Homo sapiens; conditions: Homo sapiens, PSN1;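 further: suppression of growth of human PSN1 cells, read out by a cell viability assay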
Description: SANGER: Inhibition of human PSN1 cell growth in a cell viability assay.

[8] = system: SNU-5; format: functional, cell-based, Homo sapiens; conditions: Homo sapiens, SNU-5;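 further: cell viability readout used to measure growth inhibition in human NCI-SNU-5 cells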
Description: SANGER: Inhibition of human NCI-SNU-5 cell growth in a cell viability assay.

[9] = system: NB13; format: functional, cell-based, Homo sapiens; conditions: Homo sapiens, NB13;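 further: cell viability readout measuring growth inhibition of human NB13 cells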
Description: SANGER: Inhibition of human NB13 cell growth in a cell viability assay.

[10] = system: LAN-6; format: functional, cell-based, Homo sapiens; conditions: Homo sapiens, LAN-6;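 further: growth inhibition of LAN-6 cells, determined with a cell viability assay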
Description: SANGER: Inhibition of human LAN-6 cell growth in a cell viability assay.

[11] = system: HCC1187; format: functional, cell-based, Homo sapiens; conditions: Homo sapiens, HCC1187;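 further: growth inhibition of HCC1187 cells, read out with a cell viability assay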
Description: SANGER: Inhibition of human HCC1187 cell growth in a cell viability assay.

[12] = system: SNU1; format: functional, cell-based, Homo sapiens; conditions: Homo sapiens, SNU1;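 further: growth inhibition of human NCI-SNU-1 cells, measured with a cell viability assay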
Description: SANGER: Inhibition of human NCI-SNU-1 cell growth in a cell viability assay.

[13] = system: NH-12; format: functional, cell-based, Homo sapiens; conditions: Homo sapiens, NH-12;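 further: growth inhibition of NH-12 cells, read out with a cell viability assay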
Description: SANGER: Inhibition of human NH-12 cell growth in a cell viability assay.

[14] = system: U-87 MG; format: functional, cell-based, Homo sapiens, U-87MG ATCC; conditions: Homo sapiens, U-87 MG;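 further: growth inhibition of the cells measured with a viability assay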
Description: SANGER: Inhibition of human U-87-MG cell growth in a cell viability assay.

[15] = system: LB2518-MEL; format: functional, cell-based, Homo sapiens; conditions: Homo sapiens, LB2518-MEL;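 further: growth inhibition of human LB2518-MEL cells, measured with a cell viability assay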
Description: SANGER: Inhibition of human LB2518-MEL cell growth in a cell viability assay.

[16] = system: TE-9; format: functional, cell-based, Homo sapiens; conditions: Homo sapiens, TE-9;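 further: cell growth inhibition, measured with a cell viability readout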
Description: SANGER: Inhibition of human TE-9 cell growth in a cell viability assay.

[17] = system: KS-1; format: functional, cell-based, Homo sapiens; conditions: Homo sapiens, KS-1;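 further: growth inhibition of KS-1 cells, read out with a cell viability assay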
Description: SANGER: Inhibition of human KS-1 cell growth in a cell viability assay.

[18] = system: 697; format: functional, cell-based, Homo sapiens; conditions: Homo sapiens
Description: SANGER: Inhibition of human 697 cell growth in a cell viability assay.

[19] = system: EC-GI-10; format: functional, cell-based, Homo sapiens; conditions: Homo sapiens, EC-GI-10
Description: SANGER: Inhibition of human EC-GI-10 cell growth in a cell viability assay.

[20] = system: NCI-H209; format: functional, cell-based, Homo sapiens; conditions: Homo sapiens, NCI-H209;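 further: growth inhibition of human NCI-H209 cells, measured by a cell viability assay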
Description: SANGER: Inhibition of human NCI-H209 cell growth in a cell viability assay.

[21] = system: SNU-C2B; format: functional, cell-based, Homo sapiens; conditions: Homo sapiens, SNU-C2B;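 further: cell viability readout used to measure compound-driven suppression of SNU-C2B cell proliferation, IC50 marking half-maximal growth inhibition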
Description: SANGER: Inhibition of human SNU-C2B cell growth in a cell viability assay.

[22] = system: ATN-1; format: functional, cell-based, Homo sapiens; conditions: Homo sapiens, ATN-1;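 further: growth inhibition of human ATN-1 cells, read out with a cell viability assay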
Description: SANGER: Inhibition of human ATN-1 cell growth in a cell viability assay.

[23] = system: BT-474; format: functional, cell-based, Homo sapiens; conditions: Homo sapiens, BT-474
Description: SANGER: Inhibition of human BT-474 cell growth in a cell viability assay.

[24] = system: SW684; format: functional, cell-based, Homo sapiens; conditions: Homo sapiens, SW684;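 further: growth inhibition of human SW684 cells, measured by a cell viability assay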
Description: SANGER: Inhibition of human SW684 cell growth in a cell viability assay.

[25] = system: TE-8; format: functional, cell-based, Homo sapiens; conditions: Homo sapiens, TE-8;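 further: growth inhibition of TE-8 cells, measured with a cell viability readout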
Description: SANGER: Inhibition of human TE-8 cell growth in a cell viability assay.

[26] = system: ES4; format: functional, cell-based, Homo sapiens; conditions: Homo sapiens, ES4;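 further: growth inhibition of human ES4 cells, read out by a cell viability assay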
Description: SANGER: Inhibition of human ES4 cell growth in a cell viability assay.

[27] = system: NCI-H69; format: functional, cell-based, Homo sapiens; conditions: Homo sapiens, NCI-H69;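 further: growth inhibition of the cell line, read out with a cell viability assay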
Description: SANGER: Inhibition of human NCI-H69 cell growth in a cell viability assay.

[28] = system: A253 cell line; format: functional, cell-based, Homo sapiens; conditions: Homo sapiens, A253;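 further: growth inhibition of A253 cells, read out with a cell viability assay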
Description: SANGER: Inhibition of human A253 cell growth in a cell viability assay.

[29] = system: SK-N-FI; format: functional, cell-based, Homo sapiens; conditions: Homo sapiens, SK-N-FI;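 further: cell viability assay measuring growth inhibition of human SK-N-FI cells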
Description: SANGER: Inhibition of human SK-N-FI cell growth in a cell viability assay.

[30] = system: SBC-1; format: functional, cell-based, Homo sapiens; conditions: Homo sapiens, SBC-1;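 further: cell viability assay measuring growth inhibition of the SBC-1 cell line, IC50 being the concentration that halves growth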
Description: SANGER: Inhibition of human SBC-1 cell growth in a cell viability assay.

[31] = system: SCC-15; format: functional, cell-based, Homo sapiens; conditions: Homo sapiens, SCC-15;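 further: growth inhibition of SCC-15 cells, read out with a cell viability assay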
Description: SANGER: Inhibition of human SCC-15 cell growth in a cell viability assay.

[32] = system: AM-38; format: functional, cell-based, Homo sapiens; conditions: Homo sapiens, AM-38;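 further: growth inhibition of AM-38 cells of human origin, read out by a cell viability assay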
Description: SANGER: Inhibition of human AM-38 cell growth in a cell viability assay.

[33] = system: MSTO-211H; format: functional, cell-based, Homo sapiens; conditions: Homo sapiens, MSTO-211H
Description: SANGER: Inhibition of human MSTO-211H cell growth in a cell viability assay.

[34] = system: CW-2; format: functional, cell-based, Homo sapiens; conditions: Homo sapiens, CW-2;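 further: growth inhibition of CW-2 cells, read out by a cell viability assay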
Description: SANGER: Inhibition of human CW-2 cell growth in a cell viability assay.

[35] = system: DJM-1; format: functional, cell-based, Homo sapiens; conditions: Homo sapiens, DJM-1;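 further: growth inhibition of human DJM-1 cells, read out by a cell viability assay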
Description: SANGER: Inhibition of human DJM-1 cell growth in a cell viability assay.

[36] = system: GCIY; format: functional, cell-based, Homo sapiens; conditions: Homo sapiens, GCIY;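 further: growth inhibition of the human GCIY cell line, read out by a cell viability assay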
Description: SANGER: Inhibition of human GCIY cell growth in a cell viability assay.

[37] = system: NCI-H1155; format: functional, cell-based, Homo sapiens; conditions: Homo sapiens, NCI-H1155;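 further: cell growth inhibition measured by a viability assay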
Description: SANGER: Inhibition of human NCI-H1155 cell growth in a cell viability assay.

[38] = system: COLO-684; format: functional, cell-based, Homo sapiens; conditions: Homo sapiens, COLO-684
Description: SANGER: Inhibition of human COLO-684 cell growth in a cell viability assay.

[39] = system: Ramos-2G6-4C10; format: functional, cell-based, Homo sapiens; conditions: Homo sapiens, Ramos-2G6-4C10;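 further: growth inhibition of the cell line, measured by a cell viability read-out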
Description: SANGER: Inhibition of human Ramos-2G6-4C10 cell growth in a cell viability assay.

[40] = system: IA-LM; format: functional, cell-based, Homo sapiens; conditions: Homo sapiens, IA-LM;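 further: cell viability assay measuring growth inhibition of human IA-LM cells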
Description: SANGER: Inhibition of human IA-LM cell growth in a cell viability assay.

[41] = system: MHH-PREB-1; format: functional, cell-based, Homo sapiens; conditions: Homo sapiens, MHH-PREB-1;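 further: cell viability assay measuring inhibition of proliferation of human MHH-PREB-1 cells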
Description: SANGER: Inhibition of human MHH-PREB-1 cell growth in a cell viability assay.

[42] = system: P30-OHK; format: functional, cell-based, Homo sapiens; conditions: Homo sapiens, P30-OHK;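 further: growth inhibition of the P30-OHK cell line, read out with a cell viability assay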
Description: SANGER: Inhibition of human P30-OHK cell growth in a cell viability assay.

[43] = system: SK-NEP-1; format: functional, cell-based, Homo sapiens; conditions: Homo sapiens, SK-NEP-1;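 further: growth inhibition of human SK-NEP-1 cells, read out by a cell viability assay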
Description: SANGER: Inhibition of human SK-NEP-1 cell growth in a cell viability assay.

[44] = system: SW 954; format: functional, cell-based, Homo sapiens; conditions: Homo sapiens, SW 954;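 further: growth inhibition of SW954 human cancer cells, read out as cell viability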
Description: SANGER: Inhibition of human SW954 cell growth in a cell viability assay.

[45] = system: KARPAS-299; format: functional, cell-based, Homo sapiens; conditions: Homo sapiens, KARPAS-299
Description: SANGER: Inhibition of human KARPAS-299 cell growth in a cell viability assay.

[46] = system: SW982; format: functional, cell-based, Homo sapiens; conditions: Homo sapiens, SW982;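 further: growth inhibition of SW982 cells, read out with a cell viability assay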
Description: SANGER: Inhibition of human SW982 cell growth in a cell viability assay.

[47] = system: MN-60; format: functional, cell-based, Homo sapiens; conditions: Homo sapiens, MN-60;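 further: growth inhibition of the MN-60 cell line, determined with a cell viability assay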
Description: SANGER: Inhibition of human MN-60 cell growth in a cell viability assay.

[48] = system: NCI-H1304; format: functional, cell-based, Homo sapiens; conditions: Homo sapiens, NCI-H1304;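 further: growth inhibition of the cancer cell line, measured in a cell viability assay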
Description: SANGER: Inhibition of human NCI-H1304 cell growth in a cell viability assay.

[49] = system: EW-16; format: functional, cell-based, Homo sapiens; conditions: Homo sapiens, EW-16;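 further: growth inhibition of human EW-16 cells, read out as cell viability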
Description: SANGER: Inhibition of human EW-16 cell growth in a cell viability assay.

With Oc1ccc2ccccc2c1SSc1c(O)ccc2ccccc12 the IC50 [1] was 9.36 µM, the IC50 [2] was > 32 µM and the IC50 [3] was 3.73 µM. For the same compound, the IC50 [4] was > 32 µM, the IC50 [5] was > 32 µM and the IC50 [6] was > 32 µM. The IC50 [7] was > 32 µM, the IC50 [8] was > 32 µM and the IC50 [9] was 4.23 µM. For the same compound, the IC50 [10] was > 32 µM, the IC50 [11] was > 32 µM and the IC50 [12] was > 32 µM. For the same compound, the IC50 [13] was 5.12 µM, the IC50 [14] was > 32 µM and the IC50 [15] was > 32 µM. The IC50 [16] was > 32 µM, the IC50 [17] was 6.89 µM and the IC50 [18] was > 32 µM. The IC50 [19] was > 32 µM, the IC50 [20] was > 32 µM and the IC50 [21] was > 32 µM. The IC50 [22] was > 32 µM, the IC50 [23] was 7.41 µM and the IC50 [24] was > 32 µM. The IC50 [25] was > 32 µM, the IC50 [26] was 26.3 µM and the IC50 [27] was > 32 µM. For the same compound, the IC50 [28] was > 32 µM, the IC50 [29] was > 32 µM and the IC50 [30] was > 32 µM. For the same compound, the IC50 [31] was > 32 µM, the IC50 [32] was 21.7 µM and the IC50 [33] was > 32 µM. The IC50 [34] was > 32 µM, the IC50 [35] was > 32 µM and the IC50 [36] was > 32 µM. The IC50 [37] was > 32 µM, the IC50 [38] was 20.3 µM and the IC50 [39] was > 32 µM. The IC50 [40] was > 32 µM, the IC50 [41] was 3.47 µM and the IC50 [42] was 9.87 µM. The IC50 [43] was > 32 µM, the IC50 [44] was > 32 µM and the IC50 [45] was > 32 µM. The IC50 [46] was > 32 µM, the IC50 [47] was > 32 µM and the IC50 [48] was > 32 µM. The IC50 [49] was 24.8 µM.

With N#Cc1c(O)c2c(-c3ccc(-c4ccccc4O)cc3)csc2[nH]c1=O the IC50 [1] was 0.073 µM, the IC50 [2] was 0.386 µM and the IC50 [3] was 0.107 µM. The IC50 [4] was > 1.02 µM, the IC50 [5] was > 1.02 µM and the IC50 [6] was > 1.02 µM. The IC50 [7] was > 1.02 µM, the IC50 [8] was 0.944 µM and the IC50 [9] was > 1.02 µM. For the same compound, the IC50 [10] was > 1.02 µM, the IC50 [11] was > 1.02 µM and the IC50 [12] was 0.311 µM. The IC50 [13] was 0.0369 µM, the IC50 [14] was 0.333 µM and the IC50 [15] was > 1.02 µM. For the same compound, the IC50 [16] was > 1.02 µM, the IC50 [17] was > 1.02 µM and the IC50 [18] was > 1.02 µM. The IC50 [19] was > 1.02 µM, the IC50 [20] was > 1.02 µM and the IC50 [21] was > 1.02 µM. For the same compound, the IC50 [22] was 0.499 µM, the IC50 [23] was 0.151 µM and the IC50 [24] was > 1.02 µM. The IC50 [25] was > 1.02 µM, the IC50 [26] was > 1.02 µM and the IC50 [27] was > 1.02 µM. The IC50 [28] was > 1.02 µM, the IC50 [29] was > 1.02 µM and the IC50 [30] was > 1.02 µM. For the same compound, the IC50 [31] was > 1.02 µM, the IC50 [32] was 0.0644 µM and the IC50 [33] was > 1.02 µM. The IC50 [34] was > 1.02 µM, the IC50 [35] was > 1.02 µM and the IC50 [36] was > 1.02 µM. For the same compound, the IC50 [37] was > 1.02 µM, the IC50 [38] was 0.303 µM and the IC50 [39] was 0.172 µM. For the same compound, the IC50 [40] was > 1.02 µM, the IC50 [41] was 0.182 µM and the IC50 [42] was 0.993 µM. For the same compound, the IC50 [43] was 0.185 µM, the IC50 [44] was > 1.02 µM and the IC50 [45] was 0.948 µM. For the same compound, the IC50 [46] was > 1.02 µM, the IC50 [47] was 0.346 µM and the IC50 [48] was 0.634 µM. For the same compound, the IC50 [49] was > 1.02 µM.

In the case of Cc1ccc(-c2c(C(=O)CCl)n(CCCO)c3ncnc(N)c23)cc1, the IC50 [1] is reported as > 4 µM, the IC50 [2] is reported as > 4 µM and the IC50 [3] is reported as > 4 µM. For the same compound, the IC50 [4] was > 4 µM, the IC50 [5] was > 4 µM and the IC50 [6] was > 4 µM. For the same compound, the IC50 [7] was 2.77 µM, the IC50 [8] was > 4 µM and the IC50 [9] was 0.978 µM. The IC50 [10] was > 4 µM, the IC50 [11] was > 4 µM and the IC50 [12] was > 4 µM. The IC50 [13] was > 4 µM, the IC50 [14] was > 4 µM and the IC50 [15] was > 4 µM. For the same compound, the IC50 [16] was > 4 µM, the IC50 [17] was 1.05 µM and the IC50 [18] was 0.293 µM. The IC50 [19] was > 4 µM, the IC50 [20] was > 4 µM and the IC50 [21] was > 4 µM. For the same compound, the IC50 [22] was > 4 µM, the IC50 [23] was > 4 µM and the IC50 [24] was > 4 µM. For the same compound, the IC50 [25] was 1.97 µM, the IC50 [26] was > 4 µM and the IC50 [27] was > 4 µM. For the same compound, the IC50 [28] was > 4 µM, the IC50 [29] was > 4 µM and the IC50 [30] was > 4 µM. For the same compound, the IC50 [31] was > 4 µM, the IC50 [32] was > 4 µM and the IC50 [33] was > 4 µM. For the same compound, the IC50 [34] was > 4 µM, the IC50 [35] was > 4 µM and the IC50 [36] was > 4 µM. For the same compound, the IC50 [37] was > 4 µM, the IC50 [38] was > 4 µM and the IC50 [39] was > 4 µM. The IC50 [40] was 3.21 µM, the IC50 [41] was 3.94 µM and the IC50 [42] was > 4 µM. The IC50 [43] was > 4 µM, the IC50 [44] was > 4 µM and the IC50 [45] was > 4 µM. For the same compound, the IC50 [46] was 1.31 µM, the IC50 [47] was > 4 µM and the IC50 [48] was > 4 µM. The IC50 [49] was > 4 µM.
